Measured values reported in publication PMC5400543, “Design, sythesis and evaluation of a series of 3- or 4-alkoxy substituted phenoxy derivatives as PPARs agonists” (Oncotarget, 2017).

Experiments:
PPARδ [1] = biological target: T1, PPARδ (Homo sapiens, UniProt Q03181); assay: In vitro PPARδ transactivation assay (Gal4-hPPARδLBD luciferase reporter in 293E cells); conditions: for PPARδ Activation Fold: 10^−5 M, 24 h, Csamples/Ccontrol, mean±SEM; for Cmax: read-out: Cmax, concentration at maximum efficiency percentage (Max%), PPARδ, 24 h, multiple concentrations
T1 sequence (Q03181 211-439 limits assumed): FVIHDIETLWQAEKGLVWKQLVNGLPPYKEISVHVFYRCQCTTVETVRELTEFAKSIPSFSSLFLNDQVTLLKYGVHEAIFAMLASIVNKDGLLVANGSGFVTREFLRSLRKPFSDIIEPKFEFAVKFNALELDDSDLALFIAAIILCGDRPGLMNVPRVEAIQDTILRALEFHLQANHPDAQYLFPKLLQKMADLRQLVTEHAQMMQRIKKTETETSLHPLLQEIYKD

PPARα = biological target: T2, PPARα (Homo sapiens, UniProt Q07869); assay: In vitro PPARα transactivation assay (Gal4-hPPARαLBD luciferase reporter in 293E cells); type: cell-based; conditions: 24 h; for PPARα Activation Fold: 10^−5 M, Csamples/Ccontrol, mean±SEM
T2 construct: pcDNA3.1-hPPARαLBD-Gal4DB; expressed in transfected cells; host or cells: 293E cells
T2 sequence (Q07869 239-466 limits assumed): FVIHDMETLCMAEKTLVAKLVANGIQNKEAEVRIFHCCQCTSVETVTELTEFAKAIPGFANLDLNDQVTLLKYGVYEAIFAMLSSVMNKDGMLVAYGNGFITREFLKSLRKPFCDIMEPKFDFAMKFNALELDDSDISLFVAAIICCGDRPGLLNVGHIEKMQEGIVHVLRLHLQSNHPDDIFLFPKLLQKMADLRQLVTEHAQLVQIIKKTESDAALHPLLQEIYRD

PPARγ [2] = biological target: T3, PPARγ (Homo sapiens, UniProt P37231); assay: In vitro PPARγ transactivation assay (Gal4-hPPARγLBD luciferase reporter in 293E cells); conditions: 10^−5 M, 24 h, Csamples/Ccontrol, mean±SEM
T3 sequence (P37231 238-503 limits assumed): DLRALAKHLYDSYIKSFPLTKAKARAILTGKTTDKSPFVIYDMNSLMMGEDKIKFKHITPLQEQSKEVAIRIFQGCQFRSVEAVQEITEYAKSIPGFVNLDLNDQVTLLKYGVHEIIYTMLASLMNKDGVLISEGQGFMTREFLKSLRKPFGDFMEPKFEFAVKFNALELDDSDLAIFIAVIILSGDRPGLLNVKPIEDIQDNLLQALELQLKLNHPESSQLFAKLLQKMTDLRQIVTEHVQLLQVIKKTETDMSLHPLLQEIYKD

PPARδ [3] = biological target: T1, PPARδ; assay: cell-based
PPARγ [4] = biological target: T3, PPARγ
PPARγ [5] = biological target: T3, PPARγ; assay: cell-based

CC(C)(Oc1ccc(OCCn2ccc3ccccc32)cc1)C(=O)O [6a, 2-(4-(2-(1H-indol-1-yl)ethoxy)phenoxy)-2-methylpropanoic acid]
PPARδ Activation Fold (PPARδ [1]): 0.97±0.09 | PPARα Activation Fold (PPARα): 1.00±0.07 | PPARγ Activation Fold (PPARγ [2]): 1.21±0.09

CC(C)(Oc1ccc(OCCn2c3ccccc3c3ccccc32)cc1)C(=O)O [6b, 2-(4-(2-(9H-carbazol-9-yl)ethoxy)phenoxy)-2-methylpropanoic acid]
PPARδ Activation Fold (PPARδ [1]): 1.23±0.07 | PPARα Activation Fold (PPARα): 0.80±0.00 | PPARγ Activation Fold (PPARγ [2]): 1.19±0.00

CC(C)(Oc1ccc(OCCCn2ccc3ccccc32)cc1)C(=O)O [6c, 2-(4-(3-(1H-indol-1-yl)propoxy)phenoxy)-2-methylpropanoic acid]
PPARδ Activation Fold (PPARδ [1]): 0.94±0.02 | PPARα Activation Fold (PPARα): 1.78±0.10 | PPARγ Activation Fold (PPARγ [2]): 1.40±0.18

CC(C)(Oc1ccc(OCCCn2c3ccccc3c3ccccc32)cc1)C(=O)O [6d, 2-(4-(3-(9H-carbazol-9-yl)propoxy)phenoxy)-2-methylpropanoic acid]
PPARδ Activation Fold (PPARδ [1]): 1.13±0.03 | PPARα Activation Fold (PPARα): 1.96±0.17 | PPARγ Activation Fold (PPARγ [2]): 1.57±0.00

CC(C)(Oc1ccc(OCCCn2cnc3ccccc32)cc1)C(=O)O [6e, 2-(4-(3-(1H-benzo[d]imidazol-1-yl)propoxy)phenoxy)-2-methylpropanoic acid]
PPARδ Activation Fold (PPARδ [1]): 7.09±0.97 | Cmax (PPARδ [1]): 0.1 µM | PPARα Activation Fold (PPARα): 1.38±0.06 | PPARγ Activation Fold (PPARγ [2]): 1.26±0.01 | EC50 (PPARδ [3]): 11.1 nM

CC(C)(Oc1cccc(OCC(=O)c2ccccc2)c1)C(=O)O [6f, 2-Methyl-2-(3-(2-oxo-2-phenylethoxy)phenoxy)propanoic acid]
PPARδ Activation Fold (PPARδ [1]): 1.27±0.09 | PPARα Activation Fold (PPARα): 1.58±0.09 | PPARγ Activation Fold (PPARγ [2]): 1.22±0.01

CC(C)(Oc1cccc(OCCn2c3ccccc3c3ccccc32)c1)C(=O)O [6g, 2-(3-(2-(9H-carbazol-9-yl)ethoxy)phenoxy)-2-methylpropanoic acid]
Cmax (PPARγ [4]): 50 µM | PPARδ Activation Fold (PPARδ [1]): 1.28±0.11 | PPARα Activation Fold (PPARα): 1.40±0.27 | EC50 (PPARγ [5]): 11800 nM | PPARγ Activation Fold (PPARγ [2]): 18.55±0.06

CC(C)(Oc1cccc(OCCCn2ccc3ccccc32)c1)C(=O)O [6h, 2-(3-(3-(1H-indol-1-yl)propoxy)phenoxy)-2-methylpropanoic acid]
PPARδ Activation Fold (PPARδ [1]): 0.78±0.15 | PPARα Activation Fold (PPARα): 3.81±0.83 | EC50 (PPARα; multiple concentrations): 5300 nM | Cmax (PPARα; multiple concentrations, read-out: Cmax, concentration at maximum efficiency percentage (Max%), PPARα): 10 µM | PPARγ Activation Fold (PPARγ [2]): 1.57±0.25

CC(C)(Oc1cccc(OCCCn2c3ccccc3c3ccccc32)c1)C(=O)O [6i, 2-(3-(3-(9H-carbazol-9-yl)propoxy)phenoxy)-2-methylpropanoic acid]
PPARδ Activation Fold (PPARδ [1]): 0.88±0.13 | PPARα Activation Fold (PPARα): 1.32±0.22 | PPARγ Activation Fold (PPARγ [2]): 2.87±0.33

CC(C)(Oc1cccc(OCCCn2cnc3ccccc32)c1)C(=O)O [6j, 2-(3-(3-(1H-benzo[d]imidazol-1-yl)propoxy)phenoxy)-2-methylpropanoic acid]
PPARδ Activation Fold (PPARδ [1]): 0.86±0.03 | PPARα Activation Fold (PPARα): 0.97±0.15 | PPARγ Activation Fold (PPARγ [2]): 1.17±0.00

CC(C)(Oc1cccc(OCCCc2ccccc2)c1)C(=O)O [6k, 2-Methyl-2-(3-(3-phenylpropoxy)phenoxy)propanoic acid]
PPARδ Activation Fold (PPARδ [1]): 0.99±0.22 | PPARα Activation Fold (PPARα): 1.50±0.08 | PPARγ Activation Fold (PPARγ [2]): 1.62±0.11

CC(C)(Oc1cccc(OCc2cccnc2)c1)C(=O)O [6l, 2-Methyl-2-(3-(pyridin-3-ylmethoxy)phenoxy)propanoic acid]
PPARδ Activation Fold (PPARδ [1]): 6.60±0.90 | Cmax (PPARδ [1]): 0.1 µM | PPARα Activation Fold (PPARα): 1.39±0.21 | PPARγ Activation Fold (PPARγ [2]): 1.34±0.01 | EC50 (PPARδ [3]): 1.9 nM

CC(C)(Oc1ccc(OCCCc2ccccc2)cc1)C(=O)O [6m, 2-Methyl-2-(4-(3-phenylpropoxy)phenoxy)propanoic acid]
PPARδ Activation Fold (PPARδ [1]): 1.73±0.03 | PPARα Activation Fold (PPARα): 2.01±0.22 | PPARγ Activation Fold (PPARγ [2]): 2.26±0.18

CC(C)(Oc1ccc(OCC(=O)c2ccccc2)cc1)C(=O)O [6n, 2-Methyl-2-(4-(2-oxo-2-phenylethoxy)phenoxy)propanoic acid]
PPARδ Activation Fold (PPARδ [1]): 1.24±0.06 | PPARα Activation Fold (PPARα): 1.16±0.02 | PPARγ Activation Fold (PPARγ [2]): 1.31±0.12

CC(C)(Oc1cccc(OCCn2ccc3ccccc32)c1)C(=O)O [6o, 2-(3-(2-(1H-indol-1-yl)ethoxy)phenoxy)-2-methylpropanoic acid]
PPARδ Activation Fold (PPARδ [1]): 1.00±0.24 | PPARα Activation Fold (PPARα): 1.01±0.11 | PPARγ Activation Fold (PPARγ [2]): 3.01±0.16

c1ccc2c(c1)ccn2CCOc1ccc(OCc2nn[nH]n2)cc1 [10a, 1-(2-(4-((2H-tetrazol-5-yl)methoxy)phenoxy)ethyl)-1H-indole]
PPARδ Activation Fold (PPARδ [1]): 1.28±0.06 | PPARα Activation Fold (PPARα): 0.76±0.04 | PPARγ Activation Fold (PPARγ [2]): 1.30±0.06

c1ccc2c(c1)c1ccccc1n2CCOc1ccc(OCc2nn[nH]n2)cc1 [10b, 9-(2-(4-((2H-tetrazol-5-yl)methoxy)phenoxy)ethyl)-9H-carbazole]
PPARδ Activation Fold (PPARδ [1]): 1.39±0.21 | PPARα Activation Fold (PPARα): 0.55±0.03 | PPARγ Activation Fold (PPARγ [2]): 1.26±0.22

c1ccc2c(c1)ccn2CCCOc1ccc(OCc2nn[nH]n2)cc1 [10c, 1-(3-(4-((2H-tetrazol-5-yl)methoxy)phenoxy)propyl)-1H-indole]
PPARδ Activation Fold (PPARδ [1]): 1.01±0.08 | PPARα Activation Fold (PPARα): 0.67±0.02 | PPARγ Activation Fold (PPARγ [2]): 0.96±0.01

c1ccc2c(c1)c1ccccc1n2CCCOc1ccc(OCc2nn[nH]n2)cc1 [10d, 9-(3-(4-((2H-tetrazol-5-yl)methoxy)phenoxy)propyl)-9H-carbazole]
PPARδ Activation Fold (PPARδ [1]): 1.15±0.22 | PPARα Activation Fold (PPARα): 0.50±0.04 | PPARγ Activation Fold (PPARγ [2]): 0.96±0.02

c1ccc(CCCOc2ccc(OCc3nn[nH]n3)cc2)cc1 [10e, 5-((4-(3-Phenylpropoxy)phenoxy)methyl)-2H-tetrazole]
PPARδ Activation Fold (PPARδ [1]): 1.26±0.15 | PPARα Activation Fold (PPARα): 1.91±0.13 | PPARγ Activation Fold (PPARγ [2]): 1.93±0.23

c1cncc(COc2ccc(OCc3nn[nH]n3)cc2)c1 [10f, 3-((4-((2H-tetrazol-5-yl)methoxy)phenoxy)methyl)pyridine]
PPARδ Activation Fold (PPARδ [1]): 1.02±0.09 | PPARα Activation Fold (PPARα): 0.80±0.02 | PPARγ Activation Fold (PPARγ [2]): 1.24±0.07

c1cc(OCCn2ccc3ccccc32)cc(OCc2nn[nH]n2)c1 [10g, 1-(2-(3-((2H-tetrazol-5-yl)methoxy)phenoxy)ethyl)-1H-indole]
PPARδ Activation Fold (PPARδ [1]): 0.83±0.04 | PPARα Activation Fold (PPARα): 0.90±0.05 | PPARγ Activation Fold (PPARγ [2]): 2.83±0.49

c1cc(OCCn2c3ccccc3c3ccccc32)cc(OCc2nn[nH]n2)c1 [10h, 9-(2-(3-((2H-tetrazol-5-yl)methoxy)phenoxy)ethyl)-9H-carbazole]
Cmax (PPARγ [4]): 30 µM | PPARδ Activation Fold (PPARδ [1]): 1.16±0.05 | PPARα Activation Fold (PPARα): 0.81±0.02 | EC50 (PPARγ [5]): 6970 nM | PPARγ Activation Fold (PPARγ [2]): 26.81±1.56

c1cc(OCCCn2ccc3ccccc32)cc(OCc2nn[nH]n2)c1 [10i, 1-(3-(3-((2H-tetrazol-5-yl)methoxy)phenoxy)propyl)-1H-indole]
PPARδ Activation Fold (PPARδ [1]): 0.77±0.01 | PPARα Activation Fold (PPARα): 0.89±0.19 | PPARγ Activation Fold (PPARγ [2]): 1.19±0.09

c1cc(OCCCn2c3ccccc3c3ccccc32)cc(OCc2nn[nH]n2)c1 [10j, 9-(3-(3-((2H-tetrazol-5-yl)methoxy)phenoxy)propyl)-9H-carbazole]
PPARδ Activation Fold (PPARδ [1]): 0.88±0.09 | PPARα Activation Fold (PPARα): 0.65±0.00 | PPARγ Activation Fold (PPARγ [2]): 0.69±0.01

c1ccc(CCCOc2cccc(OCc3nn[nH]n3)c2)cc1 [10k, 5-((3-(3-Phenylpropoxy)phenoxy)methyl)-2H-tetrazole]
PPARδ Activation Fold (PPARδ [1]): 1.24±0.17 | PPARα Activation Fold (PPARα): 0.74±0.09 | PPARγ Activation Fold (PPARγ [2]): 1.46±0.20

c1cncc(COc2cccc(OCc3nn[nH]n3)c2)c1 [10l, 3-((3-((2H-tetrazol-5-yl)methoxy)phenoxy)methyl)pyridine]
PPARδ Activation Fold (PPARδ [1]): 9.56±2.50 | Cmax (PPARδ [1]): 0.1 µM | PPARα Activation Fold (PPARα): 1.15±0.06 | PPARγ Activation Fold (PPARγ [2]): 1.07±0.03 | EC50 (PPARδ [3]): 27.3 nM
